ChEMBL document CHEMBL1201862, “PubChem BioAssay data set” (2004)
Calls of active or inactive are those of the source.

Key:
[1] = target: T1, Histone-lysine N-methyltransferase NSD2 (Homo sapiens, UniProt O96028); type: biochemical
T1 sequence (O96028 whole entry): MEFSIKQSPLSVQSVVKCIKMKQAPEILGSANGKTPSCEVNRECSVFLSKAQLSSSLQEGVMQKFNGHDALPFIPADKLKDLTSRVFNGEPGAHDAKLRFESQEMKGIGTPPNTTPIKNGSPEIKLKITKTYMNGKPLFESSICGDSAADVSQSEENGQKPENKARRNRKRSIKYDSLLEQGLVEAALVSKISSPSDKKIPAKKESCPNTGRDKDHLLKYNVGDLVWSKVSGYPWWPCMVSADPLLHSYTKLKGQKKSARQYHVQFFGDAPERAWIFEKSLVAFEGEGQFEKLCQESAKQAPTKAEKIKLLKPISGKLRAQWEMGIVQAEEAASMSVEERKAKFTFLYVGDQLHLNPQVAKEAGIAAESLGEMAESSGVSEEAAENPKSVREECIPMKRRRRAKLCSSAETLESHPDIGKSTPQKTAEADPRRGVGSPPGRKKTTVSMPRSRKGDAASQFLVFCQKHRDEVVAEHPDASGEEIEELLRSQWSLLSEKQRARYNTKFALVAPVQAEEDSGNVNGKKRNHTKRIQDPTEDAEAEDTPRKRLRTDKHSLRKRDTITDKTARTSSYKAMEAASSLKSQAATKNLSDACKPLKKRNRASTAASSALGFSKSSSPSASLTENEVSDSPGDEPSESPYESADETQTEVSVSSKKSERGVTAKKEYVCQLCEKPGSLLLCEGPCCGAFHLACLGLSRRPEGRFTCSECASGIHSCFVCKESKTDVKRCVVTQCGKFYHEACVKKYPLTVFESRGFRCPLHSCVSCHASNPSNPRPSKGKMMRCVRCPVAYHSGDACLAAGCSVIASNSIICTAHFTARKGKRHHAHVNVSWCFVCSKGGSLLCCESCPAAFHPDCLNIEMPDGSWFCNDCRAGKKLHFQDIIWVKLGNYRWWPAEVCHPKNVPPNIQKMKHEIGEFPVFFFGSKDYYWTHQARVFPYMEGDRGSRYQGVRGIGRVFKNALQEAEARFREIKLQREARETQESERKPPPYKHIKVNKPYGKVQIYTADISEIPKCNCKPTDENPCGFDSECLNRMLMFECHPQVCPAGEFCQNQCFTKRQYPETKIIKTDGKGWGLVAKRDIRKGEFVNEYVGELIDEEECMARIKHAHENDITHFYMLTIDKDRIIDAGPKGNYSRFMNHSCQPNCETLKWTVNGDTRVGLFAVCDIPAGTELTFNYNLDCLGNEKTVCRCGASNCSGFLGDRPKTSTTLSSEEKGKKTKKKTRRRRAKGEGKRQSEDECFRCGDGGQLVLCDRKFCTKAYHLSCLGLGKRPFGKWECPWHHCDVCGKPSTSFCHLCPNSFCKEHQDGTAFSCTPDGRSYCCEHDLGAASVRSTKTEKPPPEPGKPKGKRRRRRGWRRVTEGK

[2] = nonselective inhibitors of cellular cAMP signaling, dose response, counter-screen for MC4R biased antagonist project, cell-based, TR-FRET cAMP detection (AID 602305); type: functional;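 also: U2OS cells stimulated with forskolin near its EC80 as the cAMP inducer; potency is for inhibition of forskolin-stimulated cAMP signaling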
Melanocortin receptor 4 = Melanocortin receptor 4 (Homo sapiens, UniProt P32245); experiment: MC4R antagonist potency on cAMP, dose response, cell-based, TR-FRET, biased antagonists (AID 602298); type: functional;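 also: antagonist potency against agonist-stimulated cAMP production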
cells = type: functional
[3] = target: T2, Heat shock factor protein 1 (Mus musculus, UniProt P38532); experiment: HSF1 potentiators in luciferase reporter cells, confirmation, cell-based, NIH3T3, luminescence, dose retest (AID 435004); type: functional;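 also: stress induced by proteasome inhibitor MG132 added 30 min after compound; luciferase reporter driven by HSF1 response element in NIH3T3 cells; actives raise luminescence as potentiators of the MG132 stress response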
T2 sequence (P38532 whole entry): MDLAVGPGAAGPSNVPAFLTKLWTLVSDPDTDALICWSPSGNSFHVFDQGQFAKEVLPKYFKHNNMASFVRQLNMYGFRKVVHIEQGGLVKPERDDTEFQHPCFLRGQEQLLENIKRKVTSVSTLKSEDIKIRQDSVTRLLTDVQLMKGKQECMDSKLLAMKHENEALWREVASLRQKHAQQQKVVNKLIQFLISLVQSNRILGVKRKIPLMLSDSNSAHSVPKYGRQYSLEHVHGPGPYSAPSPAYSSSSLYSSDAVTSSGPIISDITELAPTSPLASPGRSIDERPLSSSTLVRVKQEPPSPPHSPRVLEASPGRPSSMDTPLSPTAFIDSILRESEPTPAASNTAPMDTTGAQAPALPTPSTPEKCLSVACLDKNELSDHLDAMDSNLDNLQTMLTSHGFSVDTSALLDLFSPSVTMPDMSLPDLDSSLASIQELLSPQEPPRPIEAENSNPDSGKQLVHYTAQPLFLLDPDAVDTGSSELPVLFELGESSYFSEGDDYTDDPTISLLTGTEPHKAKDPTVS

[4] = Vero cell cytotoxicity, dose response, cytotoxicity control for M. tuberculosis growth inhibitor project, Vero cells, purified and synthesized compounds, set 4 (AID 504854); type: functional; conditions: Mycobacterium tuberculosis
[5] = Vero cell cytotoxicity, cytotoxicity control for M. tuberculosis inhibitor project, purified and synthesized samples, set 3 (AID 504684); type: functional
[6] = THP-1 cell cytotoxicity, dose response, cytotoxicity control, set 3 (AID 504852); type: functional; conditions: Mycobacterium tuberculosis
[7] = Vero cell cytotoxicity, dose response, cytotoxicity control for M. tuberculosis growth inhibitor project, Vero cells, purified and synthesized compounds, set 5 (AID 504909); type: functional; conditions: Mycobacterium tuberculosis
[8] = THP-1 cell cytotoxicity, cytotoxicity control, set 4 (AID 504911); type: functional; conditions: Mycobacterium tuberculosis

Sequence of Melanocortin receptor 4 (P32245 whole entry): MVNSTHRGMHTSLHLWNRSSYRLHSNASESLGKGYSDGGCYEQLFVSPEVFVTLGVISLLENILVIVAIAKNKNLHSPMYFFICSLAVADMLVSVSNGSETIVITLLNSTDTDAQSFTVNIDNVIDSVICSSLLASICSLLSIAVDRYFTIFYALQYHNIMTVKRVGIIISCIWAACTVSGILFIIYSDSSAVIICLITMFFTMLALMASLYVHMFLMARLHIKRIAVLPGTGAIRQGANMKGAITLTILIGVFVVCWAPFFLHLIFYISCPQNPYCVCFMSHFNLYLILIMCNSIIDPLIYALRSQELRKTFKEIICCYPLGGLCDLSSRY

Row | Compound | AC50 [1] | IC50 [2] | IC50 (Melanocortin receptor 4) | IC50 (cells) | EC50 [3] | CC50 [4] | CC50 [5] | CC50 [6] | CC50 [7] | CC50 [8]
1 | CC(C)Cn1c(N)c(C(=O)COC(=O)c2ccc([N+](=O)[O-])o2)c(=O)n(C)c1=O | > 20 µM (inactive) | > 64.6 µM (inactive) | > 64.6 µM (inactive) | 1.57 µM (active) | 18.5 µM (active) |  |  |  |  | 
2 | CCSc1nc(=O)c2ccccc2[nH]1 |  |  |  |  |  | > 100 µM (active) | > 100 µM (active) | > 100 µM (active) | > 100 µM (active) | > 100 µM (active)
